Measurements taken from ChEMBL document CHEMBL1201862, “PubChem BioAssay data set” (2004).
Calls of active or inactive are those of the source.

Tests used:
Prothrombin [1] = target: Prothrombin (Homo sapiens, UniProt P00734); assay: Thrombin 1536 HTS Dose Response Confirmation. [Related pubchem assays: 1046 (Thrombin 1536 HTS; hits were confirmed in this assay)]; format: functional
[2] = inhibitors of intracellular T. cruzi replication, confirmation, NIH3T3 host cells, beta-gal luminescence (AID 2044); format: functional, cell-based;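 also: intracellular parasites grown in NIH/3T3 mouse fibroblasts as host cells; luminescent beta-galactosidase reporter signal from transgenic T. cruzi replicating inside host cells; inhibitors lower the luminescence signal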
[3] = cytotoxicity toward NIH3T3 fibroblasts, dose response, counter-screen, cell-based, ATP luminescence, mouse fibroblasts (AID 2010); format: functional;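 also: cells exposed to compound for about 90 hours before reading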
[4] = target: T1, Mannose-6-phosphate isomerase (Homo sapiens, UniProt P34949); assay: inhibitors of human PMI, primary screen, biochemical, fluorescence intensity, coupled assay (AID 1209)
T1 sequence (P34949 whole entry): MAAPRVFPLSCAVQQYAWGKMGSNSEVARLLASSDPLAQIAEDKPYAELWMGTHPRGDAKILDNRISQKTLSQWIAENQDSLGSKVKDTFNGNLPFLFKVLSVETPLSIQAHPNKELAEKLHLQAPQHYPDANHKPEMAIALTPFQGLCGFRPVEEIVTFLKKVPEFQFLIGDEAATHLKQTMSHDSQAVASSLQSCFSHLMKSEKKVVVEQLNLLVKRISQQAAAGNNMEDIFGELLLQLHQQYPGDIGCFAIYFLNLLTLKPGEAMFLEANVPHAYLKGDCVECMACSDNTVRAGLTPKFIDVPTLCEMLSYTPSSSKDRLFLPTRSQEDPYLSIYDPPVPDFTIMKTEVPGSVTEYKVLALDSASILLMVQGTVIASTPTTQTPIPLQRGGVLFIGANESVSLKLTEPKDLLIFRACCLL

[5] = target: T1, Mannose-6-phosphate isomerase; assay: human PMI inhibitors, high substrate, primary screen, biochemical, fluorescence intensity, high mannose 6-phosphate (AID 1220)
Caspase-3 = target: T2, Caspase-3 (Homo sapiens, UniProt P42574); assay: SAR Analysis of small molecule inhibitors of Sentrin-specific proteases (SENPs) using a Caspase-3 Selectivity assay. [Related pubchem assays (depositor defined):AID2540, AID2599, AID434973, AID489001]; format: functional
T2 sequence (P42574 whole entry): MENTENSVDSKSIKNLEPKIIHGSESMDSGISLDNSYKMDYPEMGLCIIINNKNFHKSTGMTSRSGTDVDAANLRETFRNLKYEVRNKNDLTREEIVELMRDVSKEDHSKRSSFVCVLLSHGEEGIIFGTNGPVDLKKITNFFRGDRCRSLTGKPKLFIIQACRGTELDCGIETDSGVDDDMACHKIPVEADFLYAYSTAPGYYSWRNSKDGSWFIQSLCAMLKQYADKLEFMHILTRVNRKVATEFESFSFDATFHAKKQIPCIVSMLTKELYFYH

[6] = target: T3, Sentrin-specific protease 8 (Homo sapiens, UniProt Q96LD8); assay: SENP8 protease inhibitors, SAR follow-up, biochemical, luminescence (AID 504501); format: functional
T3 sequence (Q96LD8 whole entry): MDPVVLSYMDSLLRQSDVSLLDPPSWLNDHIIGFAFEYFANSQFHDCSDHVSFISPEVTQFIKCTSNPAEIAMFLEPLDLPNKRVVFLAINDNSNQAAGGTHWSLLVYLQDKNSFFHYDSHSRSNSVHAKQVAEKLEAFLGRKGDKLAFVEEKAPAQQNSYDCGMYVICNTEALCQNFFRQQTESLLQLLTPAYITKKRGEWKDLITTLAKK

[7] = target: T4, Sentrin-specific protease 6 (Homo sapiens, UniProt Q9GZR1); assay: SAR Analysis of small molecule inhibitors of Sentrin-specific protease 6 (SENP6) using a Luminescent assay. [Related pubchem assays (depositor defined):AID2582, AID2599]; format: functional
T4 sequence (Q9GZR1 whole entry): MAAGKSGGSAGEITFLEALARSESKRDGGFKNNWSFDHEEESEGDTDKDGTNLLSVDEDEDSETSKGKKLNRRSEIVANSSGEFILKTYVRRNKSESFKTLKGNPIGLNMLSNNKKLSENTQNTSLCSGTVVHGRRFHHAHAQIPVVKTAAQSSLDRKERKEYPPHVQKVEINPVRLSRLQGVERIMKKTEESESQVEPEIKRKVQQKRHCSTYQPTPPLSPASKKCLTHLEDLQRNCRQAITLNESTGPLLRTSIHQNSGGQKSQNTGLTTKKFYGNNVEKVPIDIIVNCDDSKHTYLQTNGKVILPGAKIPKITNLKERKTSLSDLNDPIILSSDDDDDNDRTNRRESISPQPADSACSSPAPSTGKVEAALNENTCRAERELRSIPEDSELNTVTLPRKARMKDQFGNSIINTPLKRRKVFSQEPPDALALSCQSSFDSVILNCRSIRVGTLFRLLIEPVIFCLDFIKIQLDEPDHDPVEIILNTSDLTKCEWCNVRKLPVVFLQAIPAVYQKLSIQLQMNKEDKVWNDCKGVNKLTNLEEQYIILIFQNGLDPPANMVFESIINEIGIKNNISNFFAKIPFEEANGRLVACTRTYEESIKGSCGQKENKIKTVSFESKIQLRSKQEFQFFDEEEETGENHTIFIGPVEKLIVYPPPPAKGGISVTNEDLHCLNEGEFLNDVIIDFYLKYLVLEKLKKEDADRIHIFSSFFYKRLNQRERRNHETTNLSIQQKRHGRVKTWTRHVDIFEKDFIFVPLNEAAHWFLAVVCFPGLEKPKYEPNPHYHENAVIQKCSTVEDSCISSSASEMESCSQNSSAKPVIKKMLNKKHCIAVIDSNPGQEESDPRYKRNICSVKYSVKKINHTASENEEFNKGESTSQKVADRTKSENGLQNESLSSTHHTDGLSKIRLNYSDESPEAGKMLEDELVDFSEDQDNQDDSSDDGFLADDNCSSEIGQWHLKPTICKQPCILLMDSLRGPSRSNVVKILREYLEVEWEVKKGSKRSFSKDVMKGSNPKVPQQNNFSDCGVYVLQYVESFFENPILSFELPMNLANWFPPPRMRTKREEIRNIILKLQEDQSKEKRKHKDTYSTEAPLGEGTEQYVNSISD

[8] = target: T5, Sentrin-specific protease 7 (Homo sapiens, UniProt Q9BQF6); assay: SENP7 protease inhibitors, SAR follow-up, biochemical, luminescence (AID 504497); format: functional
T5 sequence (Q9BQF6 whole entry): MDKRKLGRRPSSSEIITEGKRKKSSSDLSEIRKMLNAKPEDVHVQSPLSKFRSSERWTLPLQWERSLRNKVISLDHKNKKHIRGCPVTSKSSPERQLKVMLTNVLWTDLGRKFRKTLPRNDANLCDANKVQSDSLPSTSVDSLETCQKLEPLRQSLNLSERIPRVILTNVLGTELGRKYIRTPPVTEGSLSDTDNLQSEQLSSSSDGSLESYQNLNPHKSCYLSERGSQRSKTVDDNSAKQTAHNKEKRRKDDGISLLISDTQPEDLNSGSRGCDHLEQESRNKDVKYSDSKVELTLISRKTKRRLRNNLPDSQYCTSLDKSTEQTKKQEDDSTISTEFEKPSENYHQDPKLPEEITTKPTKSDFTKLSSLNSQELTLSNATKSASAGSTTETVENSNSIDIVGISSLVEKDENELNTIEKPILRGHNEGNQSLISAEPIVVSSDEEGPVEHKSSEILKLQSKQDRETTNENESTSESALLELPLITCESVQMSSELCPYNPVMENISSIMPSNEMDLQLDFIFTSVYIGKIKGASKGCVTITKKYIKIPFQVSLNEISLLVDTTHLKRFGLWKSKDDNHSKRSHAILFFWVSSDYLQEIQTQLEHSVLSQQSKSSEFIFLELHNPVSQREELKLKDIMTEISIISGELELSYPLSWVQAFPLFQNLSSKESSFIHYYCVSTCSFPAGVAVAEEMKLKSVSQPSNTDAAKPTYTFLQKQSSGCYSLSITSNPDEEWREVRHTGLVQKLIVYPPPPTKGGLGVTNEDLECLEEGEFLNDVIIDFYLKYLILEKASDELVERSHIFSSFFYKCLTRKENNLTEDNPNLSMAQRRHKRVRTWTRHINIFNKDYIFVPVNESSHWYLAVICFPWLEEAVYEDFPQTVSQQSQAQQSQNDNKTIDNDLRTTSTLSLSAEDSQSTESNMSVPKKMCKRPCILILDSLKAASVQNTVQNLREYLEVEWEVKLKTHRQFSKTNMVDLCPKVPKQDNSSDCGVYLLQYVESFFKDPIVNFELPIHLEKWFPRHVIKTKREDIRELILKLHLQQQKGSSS

Streptococcus = assay: Group A Streptococcus viability loss, dose response, counter-screen for streptokinase expression inhibitor project, luminescence, BacTiterGlo (AID 1915); format: functional, organism-based;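 also: potency for reduction of bacterial viability or growth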
[9] = target: 72 kDa type IV collagenase (Homo sapiens, UniProt P08253); assay: Dose Response validation of uHTS RPN11 inhibitor hits using a MMP-2 Fluorescence assay.; format: functional
Streptokinase A = target: T6, Streptokinase A (Streptococcus pyogenes serotype M1, UniProt P10520); assay: S. pyogenes streptokinase expression inhibitors, potency, dose response, plasminogen activation absorbance, OD405 (AID 1914); format: functional, Streptococcus pyogenes M1 GAS;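 also: secreted streptokinase activity via plasminogen activation per viability signal from cell pellet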
T6 sequence (P10520 whole entry): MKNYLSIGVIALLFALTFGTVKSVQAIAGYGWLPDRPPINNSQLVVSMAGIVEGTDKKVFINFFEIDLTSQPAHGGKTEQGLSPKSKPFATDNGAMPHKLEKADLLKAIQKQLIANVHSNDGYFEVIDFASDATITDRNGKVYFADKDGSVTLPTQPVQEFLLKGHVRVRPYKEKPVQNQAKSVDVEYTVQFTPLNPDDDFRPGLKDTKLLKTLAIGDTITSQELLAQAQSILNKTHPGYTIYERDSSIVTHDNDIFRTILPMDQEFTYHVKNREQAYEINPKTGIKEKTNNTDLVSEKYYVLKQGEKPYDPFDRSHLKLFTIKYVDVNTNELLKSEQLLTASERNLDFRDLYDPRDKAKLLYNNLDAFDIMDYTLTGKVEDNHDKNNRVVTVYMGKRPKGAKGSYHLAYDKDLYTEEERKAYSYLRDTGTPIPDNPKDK

[10] = target: 26S proteasome non-ATPase regulatory subunit 14 (Homo sapiens, UniProt O00487); assay: inhibition of proteasome subunit RPN11 – biochemical, fluorescence polarization, uHTS hits, confirmation (AID 602368); format: functional
Prothrombin [11] = target: Prothrombin (Bos taurus, UniProt P00735); assay: thrombin inhibition, dose response, biochemical, fluorescence polarization, uHTS hits (AID 602369); format: functional
[12] = test system: Streptococcus sp. 'group A'; assay: growth inhibition of control SK(-) GAS strain, dose response, counter-screen for streptokinase expression inhibitor project, luminescence, kanamycin, BacTiterGlo, confirmation (AID 1900); format: functional, organism-based
[13] = target: T7, Tyrosine-protein phosphatase non-receptor type 7 (Homo sapiens, UniProt P35236); assay: inhibitors of human HePTP phosphatase, […], biochemical, absorbance, leukemia target (AID 521); format: functional
T7 sequence (P35236 whole entry): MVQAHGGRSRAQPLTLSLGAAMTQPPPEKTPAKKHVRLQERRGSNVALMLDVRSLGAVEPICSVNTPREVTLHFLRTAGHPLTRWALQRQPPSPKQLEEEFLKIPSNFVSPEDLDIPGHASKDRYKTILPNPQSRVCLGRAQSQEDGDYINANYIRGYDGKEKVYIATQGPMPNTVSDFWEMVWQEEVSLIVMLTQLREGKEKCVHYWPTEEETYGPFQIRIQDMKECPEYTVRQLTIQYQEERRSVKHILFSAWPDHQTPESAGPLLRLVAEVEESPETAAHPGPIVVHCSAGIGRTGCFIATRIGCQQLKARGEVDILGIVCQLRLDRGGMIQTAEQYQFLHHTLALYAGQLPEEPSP

[14] = target: Peroxisome proliferator-activated receptor gamma/Nuclear receptor coactivator 3 (Homo sapiens, UniProt P37231); format: functional;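 also: agonist potency for raising coactivator recruitment to the receptor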
[15] = target: Peroxisome proliferator-activated receptor gamma/Nuclear receptor coactivator 2 (Homo sapiens, UniProt P37231); format: functional;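 also: agonist potency for raising coactivator recruitment to the receptor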
Estrogen receptor beta [16] = target: T8, Estrogen receptor beta (Homo sapiens, UniProt Q92731);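 also: recombinant ER-beta bound to coactivator SRC1 peptide in presence of estradiol agonist; inhibitors block coactivator peptide binding and lower the FRET signal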
[17] = target: Peroxisome proliferator-activated receptor gamma/Nuclear receptor coactivator 1 (Homo sapiens, UniProt P37231); format: functional;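 also: agonist potency as compounds enhance coactivator SRC-1 recruitment to PPARgamma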
Estrogen receptor beta [18] = target: T8, Estrogen receptor beta; assay: ERβ–SRC-3 coactivator interaction inhibitors, confirmation, orthogonal assay, biochemical, ELISA, streptavidin-HRP readout (AID 1060)

T8 sequence (Q92731 whole entry): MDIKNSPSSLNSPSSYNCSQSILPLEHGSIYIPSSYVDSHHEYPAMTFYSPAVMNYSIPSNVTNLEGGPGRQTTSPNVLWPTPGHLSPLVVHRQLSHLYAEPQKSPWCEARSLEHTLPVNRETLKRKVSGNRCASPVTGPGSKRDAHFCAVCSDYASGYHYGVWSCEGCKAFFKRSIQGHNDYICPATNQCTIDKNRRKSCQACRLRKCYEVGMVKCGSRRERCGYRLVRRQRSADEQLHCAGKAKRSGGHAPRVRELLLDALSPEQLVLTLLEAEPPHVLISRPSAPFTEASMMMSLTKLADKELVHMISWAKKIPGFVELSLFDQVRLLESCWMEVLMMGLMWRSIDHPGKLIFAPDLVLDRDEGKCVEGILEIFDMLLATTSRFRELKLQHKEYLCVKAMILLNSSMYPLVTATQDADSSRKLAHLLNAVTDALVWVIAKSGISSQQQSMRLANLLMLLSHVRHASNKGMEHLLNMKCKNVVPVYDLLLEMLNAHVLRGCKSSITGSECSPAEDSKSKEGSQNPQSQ
Sequence of 72 kDa type IV collagenase (P08253 whole entry): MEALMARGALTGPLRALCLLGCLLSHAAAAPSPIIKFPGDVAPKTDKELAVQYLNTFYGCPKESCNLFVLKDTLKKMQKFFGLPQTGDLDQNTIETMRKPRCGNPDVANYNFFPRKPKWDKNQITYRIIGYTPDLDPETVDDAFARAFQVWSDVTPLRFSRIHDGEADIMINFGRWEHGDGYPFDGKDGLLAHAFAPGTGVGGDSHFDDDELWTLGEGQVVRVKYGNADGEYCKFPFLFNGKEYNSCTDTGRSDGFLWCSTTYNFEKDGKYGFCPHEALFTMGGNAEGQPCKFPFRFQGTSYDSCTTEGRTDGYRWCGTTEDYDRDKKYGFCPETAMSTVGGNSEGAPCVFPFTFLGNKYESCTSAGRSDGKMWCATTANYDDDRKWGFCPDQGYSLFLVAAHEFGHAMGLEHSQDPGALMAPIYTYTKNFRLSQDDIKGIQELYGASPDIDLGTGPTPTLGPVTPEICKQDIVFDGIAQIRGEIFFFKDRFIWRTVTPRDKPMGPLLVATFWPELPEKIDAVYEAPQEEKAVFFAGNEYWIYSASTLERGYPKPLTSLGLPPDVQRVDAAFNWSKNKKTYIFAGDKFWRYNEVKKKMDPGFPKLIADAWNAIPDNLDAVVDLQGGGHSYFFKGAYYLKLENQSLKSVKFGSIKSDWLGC
Sequence of 26S proteasome non-ATPase regulatory subunit 14 (O00487 whole entry): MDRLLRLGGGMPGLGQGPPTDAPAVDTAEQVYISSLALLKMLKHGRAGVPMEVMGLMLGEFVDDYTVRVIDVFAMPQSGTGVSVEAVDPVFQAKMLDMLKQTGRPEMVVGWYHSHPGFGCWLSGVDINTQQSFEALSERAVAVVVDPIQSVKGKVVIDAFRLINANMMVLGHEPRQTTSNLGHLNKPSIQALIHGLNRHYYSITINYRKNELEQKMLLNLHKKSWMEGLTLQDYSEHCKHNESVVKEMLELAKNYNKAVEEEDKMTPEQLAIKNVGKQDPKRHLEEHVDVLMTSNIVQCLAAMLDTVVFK
Sequence of Peroxisome proliferator-activated receptor gamma/Nuclear receptor coactivator 3 (P37231 whole entry): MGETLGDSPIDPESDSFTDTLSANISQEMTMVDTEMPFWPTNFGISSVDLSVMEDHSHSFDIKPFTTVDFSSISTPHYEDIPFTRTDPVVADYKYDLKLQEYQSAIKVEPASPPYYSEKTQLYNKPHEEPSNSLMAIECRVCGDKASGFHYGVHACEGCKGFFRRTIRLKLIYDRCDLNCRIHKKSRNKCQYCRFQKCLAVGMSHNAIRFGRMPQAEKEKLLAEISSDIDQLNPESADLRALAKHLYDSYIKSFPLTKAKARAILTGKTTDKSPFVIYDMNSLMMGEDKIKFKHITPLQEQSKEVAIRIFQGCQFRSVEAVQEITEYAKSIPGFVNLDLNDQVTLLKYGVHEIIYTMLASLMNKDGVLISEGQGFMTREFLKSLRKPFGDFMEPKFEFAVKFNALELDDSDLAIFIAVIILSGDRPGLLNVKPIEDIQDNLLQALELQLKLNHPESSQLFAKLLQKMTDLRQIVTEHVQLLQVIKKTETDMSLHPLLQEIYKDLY
Sequence of Peroxisome proliferator-activated receptor gamma/Nuclear receptor coactivator 3 (Q9Y6Q9 whole entry, further chain): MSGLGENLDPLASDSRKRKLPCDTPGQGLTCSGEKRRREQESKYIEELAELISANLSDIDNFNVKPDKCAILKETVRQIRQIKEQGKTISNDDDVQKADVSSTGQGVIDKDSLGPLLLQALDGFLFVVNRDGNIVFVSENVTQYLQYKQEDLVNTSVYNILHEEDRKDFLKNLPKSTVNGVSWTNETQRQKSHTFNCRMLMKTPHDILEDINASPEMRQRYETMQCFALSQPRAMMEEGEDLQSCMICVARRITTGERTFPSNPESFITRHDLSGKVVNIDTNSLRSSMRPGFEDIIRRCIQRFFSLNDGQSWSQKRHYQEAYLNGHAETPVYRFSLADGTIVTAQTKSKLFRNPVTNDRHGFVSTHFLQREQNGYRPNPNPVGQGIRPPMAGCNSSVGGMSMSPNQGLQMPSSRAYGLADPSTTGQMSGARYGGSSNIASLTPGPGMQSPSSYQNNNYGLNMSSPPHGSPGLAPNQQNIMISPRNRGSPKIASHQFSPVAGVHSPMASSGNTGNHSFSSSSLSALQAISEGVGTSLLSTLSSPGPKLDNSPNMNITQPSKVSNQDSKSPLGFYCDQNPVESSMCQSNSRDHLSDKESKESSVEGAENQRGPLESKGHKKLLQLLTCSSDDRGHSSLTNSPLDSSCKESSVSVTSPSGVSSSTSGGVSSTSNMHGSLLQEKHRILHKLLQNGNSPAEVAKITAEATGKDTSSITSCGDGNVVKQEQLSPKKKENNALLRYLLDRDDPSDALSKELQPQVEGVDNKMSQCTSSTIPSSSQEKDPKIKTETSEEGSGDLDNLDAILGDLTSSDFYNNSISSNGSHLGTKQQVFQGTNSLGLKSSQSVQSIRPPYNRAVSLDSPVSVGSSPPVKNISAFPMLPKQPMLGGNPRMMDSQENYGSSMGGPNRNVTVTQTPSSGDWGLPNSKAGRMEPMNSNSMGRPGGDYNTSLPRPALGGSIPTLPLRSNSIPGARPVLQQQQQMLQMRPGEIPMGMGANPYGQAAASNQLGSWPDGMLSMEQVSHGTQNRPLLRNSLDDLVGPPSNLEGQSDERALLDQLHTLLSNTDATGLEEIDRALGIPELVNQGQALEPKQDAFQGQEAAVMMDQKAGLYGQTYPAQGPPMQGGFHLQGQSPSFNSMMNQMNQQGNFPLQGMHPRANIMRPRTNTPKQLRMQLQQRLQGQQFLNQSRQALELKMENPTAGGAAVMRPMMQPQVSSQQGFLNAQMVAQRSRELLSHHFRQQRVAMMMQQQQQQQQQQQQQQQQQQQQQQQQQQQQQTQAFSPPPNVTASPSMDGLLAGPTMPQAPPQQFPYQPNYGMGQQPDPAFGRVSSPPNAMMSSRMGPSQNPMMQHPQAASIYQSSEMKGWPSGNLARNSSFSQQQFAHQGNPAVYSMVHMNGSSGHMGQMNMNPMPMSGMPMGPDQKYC

## Cn1cc(C(=O)NCc2cccs2)c(=O)c2cc(S(=O)(=O)N3CCCC3)ccc21
Prothrombin [1]
  IC50: 0.691 µM (active)

## CC(Oc1ccc(Br)cc1)C(=O)Nc1ccc(S(=O)(=O)N(C)C2CCN(C)CC2)cc1 (stereo not given)
[2]
  EC50: < 0.1 µM (active)
cells
  EC50: 0.073 µM (active)
[3]
  EC50: 8.64 µM (active)

## Oc1cccc(/C=N/Nc2cc(N3CCOCC3)nc(N3CCOCC3)n2)c1
[4]
  IC50: > 50 µM (not active)
[5]
  IC50: > 50 µM (not active)
Caspase-3
  IC50: > 99 µM (inactive)
[6]
  IC50: > 99 µM (inactive)
[7]
  IC50: 89.1 µM (active)
[8]
  IC50: 80.5 µM (active)

## COc1ccc2nc3c(O)n(/N=C/c4ccc(OC)c(CN5CCCC5)c4)c(C)nc-3c2c1
Streptococcus
  EC50: > 150 µM (not active)
[9]
  IC50: > 100 µM (inactive)
[2]
  EC50: < 0.1 µM (active)
cells
  EC50: 0.336 µM (active)
Streptokinase A
  EC50: 32.3 µM (active)
[3]
  EC50: > 60 µM (not active)
[10]
  IC50: 13 µM (active)
Prothrombin [11]
  IC50: 87.9 µM (active)
[12]
  EC50: 17.8 µM (active)

## NS(=O)(=O)c1cc2c(cc1C(F)(F)F)NCNS2(=O)=O [HYDROFLUMETHIAZIDE]
[13]
  IC50: > 100 µM (not active)

## c1csc(Cc2nn3c(-c4n[nH]c5c4CCC5)nnc3s2)c1
[14]
  EC50: > 79.4 µM (not active)
[15]
  EC50: > 79.4 µM (not active)
Estrogen receptor beta [16]
  IC50: > 50 µM (not active)
[17]
  EC50: > 79.4 µM (not active)
Estrogen receptor beta [18]
  IC50: > 50 µM (not active)
